Measurements reported in publication PMC12138102 (Acta Pharmaceutica Sinica. B, 2025).

Columns and labels:
[1] = target: eeAChE (Electrophorus electricus, UniProt O42275); assay: AChE inhibition, Ellman's assay; assay type: biochemical
[2] = target: eqBuChE (Equus caballus, UniProt P81908); assay: BuChE inhibition, Ellman's assay; assay type: biochemical, equine; details: for IC50: IC50 ± SD eqBuChE; for SI: Selectivity Index, eeAChE and eqBuChE
[3] = target: huAChE (Homo sapiens, UniProt P22303); assay: AChE inhibition, Ellman's assay; assay type: biochemical
Chain of huAChE (P22303 32-617 isoform P22303-2 limits assumed): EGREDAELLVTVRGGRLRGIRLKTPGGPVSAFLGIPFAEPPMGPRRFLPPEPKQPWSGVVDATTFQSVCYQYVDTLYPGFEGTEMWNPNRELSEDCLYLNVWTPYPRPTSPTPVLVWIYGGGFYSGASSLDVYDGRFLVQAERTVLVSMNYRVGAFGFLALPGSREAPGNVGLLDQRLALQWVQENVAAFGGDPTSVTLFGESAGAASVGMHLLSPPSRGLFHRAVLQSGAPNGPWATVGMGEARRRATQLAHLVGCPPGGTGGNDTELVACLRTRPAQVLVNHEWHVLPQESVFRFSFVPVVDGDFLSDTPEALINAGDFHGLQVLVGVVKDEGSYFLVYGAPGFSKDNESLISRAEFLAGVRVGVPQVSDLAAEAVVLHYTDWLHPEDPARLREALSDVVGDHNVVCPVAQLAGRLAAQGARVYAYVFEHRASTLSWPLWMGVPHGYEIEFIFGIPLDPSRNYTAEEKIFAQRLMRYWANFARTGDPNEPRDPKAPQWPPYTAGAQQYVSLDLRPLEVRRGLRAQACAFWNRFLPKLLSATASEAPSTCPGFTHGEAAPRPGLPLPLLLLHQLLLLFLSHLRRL

[4] = target: huBuChE (Homo sapiens, UniProt P06276); assay: BuChE inhibition, Ellman's assay; assay type: biochemical; details: for SI: Selectivity Index, huAChE and huBuChE
Chain of huBuChE (P06276 29-602): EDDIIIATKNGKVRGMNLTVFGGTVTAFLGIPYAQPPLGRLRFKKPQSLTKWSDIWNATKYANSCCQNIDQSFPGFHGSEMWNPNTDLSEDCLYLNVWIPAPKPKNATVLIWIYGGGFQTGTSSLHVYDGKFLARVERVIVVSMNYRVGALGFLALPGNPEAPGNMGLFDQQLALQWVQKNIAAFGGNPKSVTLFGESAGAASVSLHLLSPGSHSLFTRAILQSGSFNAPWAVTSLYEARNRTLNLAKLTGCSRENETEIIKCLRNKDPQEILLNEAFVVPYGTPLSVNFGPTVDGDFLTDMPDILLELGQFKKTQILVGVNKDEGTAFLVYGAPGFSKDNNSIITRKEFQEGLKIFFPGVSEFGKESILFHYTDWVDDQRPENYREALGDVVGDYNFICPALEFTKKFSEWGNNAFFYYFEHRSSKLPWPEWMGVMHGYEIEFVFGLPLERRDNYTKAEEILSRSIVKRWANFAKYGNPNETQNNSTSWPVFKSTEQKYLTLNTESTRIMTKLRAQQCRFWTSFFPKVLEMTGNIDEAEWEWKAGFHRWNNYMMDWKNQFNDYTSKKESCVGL

[5] = test system: BuChE; assay: Reversibility of BuChE inhibition; assay type: biochemical; details: 0.1 × IC50, 120 min
[6] = test system: scopolamine-induced mice; assay: Scopolamine-induced mice dysmnesia, step-down passive avoidance task; assay type: in vivo, Kunming mice
[7] = test system: AlCl3-induced zebrafish AD model; assay: AlCl3-induced zebrafish AD model; assay type: in vivo; details: donepezil 3.0 μg/mL
[8] = test system: APP/PS1 double-transgenic mice; assay: APP/PS1 mice, Morris Water Maze and tissue analyses; assay type: in vivo
[9] = plasma, donepezil 2.0 mg/kg, 8e 2.6 mg/kg

Chain of eeAChE (O42275 24-633): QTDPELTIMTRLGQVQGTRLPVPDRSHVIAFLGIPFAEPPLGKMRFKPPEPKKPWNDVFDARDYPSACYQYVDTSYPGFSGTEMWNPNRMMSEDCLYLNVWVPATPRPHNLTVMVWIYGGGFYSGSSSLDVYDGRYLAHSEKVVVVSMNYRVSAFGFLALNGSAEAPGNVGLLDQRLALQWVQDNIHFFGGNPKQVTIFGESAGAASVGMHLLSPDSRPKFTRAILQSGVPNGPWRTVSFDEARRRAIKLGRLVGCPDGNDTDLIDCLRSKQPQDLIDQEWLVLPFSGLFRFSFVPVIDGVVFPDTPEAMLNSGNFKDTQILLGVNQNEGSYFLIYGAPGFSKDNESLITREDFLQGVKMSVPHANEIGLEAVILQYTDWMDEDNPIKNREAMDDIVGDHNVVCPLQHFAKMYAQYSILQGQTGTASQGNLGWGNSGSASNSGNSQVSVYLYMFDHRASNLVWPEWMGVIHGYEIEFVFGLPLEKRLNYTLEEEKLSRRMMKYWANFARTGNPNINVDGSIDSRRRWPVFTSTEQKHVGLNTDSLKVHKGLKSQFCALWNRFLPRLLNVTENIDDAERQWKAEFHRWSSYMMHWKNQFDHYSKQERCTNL
Chain of eqBuChE (P81908 whole entry): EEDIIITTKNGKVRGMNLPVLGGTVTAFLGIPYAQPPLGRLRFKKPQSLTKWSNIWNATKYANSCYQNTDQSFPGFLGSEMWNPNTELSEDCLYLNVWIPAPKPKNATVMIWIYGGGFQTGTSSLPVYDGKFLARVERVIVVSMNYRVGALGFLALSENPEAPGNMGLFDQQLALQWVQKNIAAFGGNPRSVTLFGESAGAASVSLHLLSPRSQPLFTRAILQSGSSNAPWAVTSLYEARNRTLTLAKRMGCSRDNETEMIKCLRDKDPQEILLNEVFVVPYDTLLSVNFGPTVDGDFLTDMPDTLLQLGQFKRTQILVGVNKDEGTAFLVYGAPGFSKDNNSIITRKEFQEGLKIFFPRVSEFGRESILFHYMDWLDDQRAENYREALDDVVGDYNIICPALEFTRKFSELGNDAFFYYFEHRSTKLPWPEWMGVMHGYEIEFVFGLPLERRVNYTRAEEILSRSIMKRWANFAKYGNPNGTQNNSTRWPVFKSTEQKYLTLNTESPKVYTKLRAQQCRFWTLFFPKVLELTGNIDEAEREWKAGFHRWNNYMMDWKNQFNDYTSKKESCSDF

Compound | IC50 [1] [µM] | IC50 [2] [nM] | SI [2] | further results
COc1cc(C(=O)N2CCC(Cc3ccccc3)CC2)ccc1OCCCCN1CCc2ccccc2C1 [7d] | 3.1 ± 0.15 | 850 ± 20 | 3.6 | 
CCN(CCCCCCCCCCOc1ccc(CCC(=O)N2CCC(Cc3ccccc3)CC2)cc1OC)Cc1ccccc1 [10f] | 4.7 ± 0.28 | 590 ± 80 | 8.0 | 
COc1cc(CCC(=O)N2CCC(Cc3ccccc3)CC2)ccc1OCCCCN1CC(C)CC(C)C1 (stereo not shown) [8g] | 6.5 ± 0.33 | 750 ± 20 | 8.7 | 
CCN(CCCCOc1c(OC)cc(C(=O)NC2CCN(Cc3ccccc3)CC2)cc1OC)Cc1ccccc1 [7i] | 5.7 ± 0.03 | 2600 ± 120 | 2.2 | 
COc1cc(CCC(=O)N2CCC(Cc3ccccc3)CC2)ccc1OC(=O)CCCCN1CCN(Cc2ccccc2)CC1 [9b] | 1.9 ± 0.11 | 1700 ± 60 | 1.1 | 
COc1cc(CCC(=O)N2CCC(Cc3ccccc3)CC2)ccc1OCCCCN1CCC(C(=O)c2ccc(F)cc2)CC1 [8j] | 4.9 ± 0.18 | 310 ± 120 | 16 | 
COc1cc(C(=O)N2CCC(Cc3ccccc3)CC2)ccc1OCCCCN1CCC(Cc2ccccc2)CC1 [7a] | 5.9 ± 0.36 | 660 ± 30 | 8.9 | 
CCN(CCCCOc1c(OC)cc(C(=O)N2CCN(c3ccc(F)cc3)CC2)cc1OC)Cc1ccccc1 [7j] | 6.9 ± 0.04 | 6300 ± 320 | 1.1 | 
CCN(CCCCCOc1ccc(CCC(=O)N2CCC(Cc3ccccc3)CC2)cc1OC)Cc1ccccc1 [10c] | 6.2 ± 0.12 | 77 ± 2 | 81 | IC50 [3]: 8.6 ± 0.33 µM; IC50 [4]: 110 nM; SI [4]: 78
COc1cc(C(=O)N2CCC(Cc3ccccc3)CC2)ccc1OCCCCN1CCN(Cc2ccccc2)CC1 [7b] | 7.9 ± 0.25 | 3100 ± 120 | 2.5 | 
COc1cc(CCC(=O)N2CCC(Cc3ccccc3)CC2)ccc1OCCCCN1CCN(Cc2ccccc2)CC1 [8b] | 5.8 ± 0.35 | 3300 ± 130 | 1.8 | 
COc1cc(CCC(=O)N2CCC(Cc3ccccc3)CC2)ccc1OC(=O)CCCCN1CCC(Cc2ccccc2)CC1 [9a] | 7.1 ± 0.15 | 820 ± 30 | 8.7 | 
CCN(CCCOc1ccc(CCC(=O)N2CCC(Cc3ccccc3)CC2)cc1OC)Cc1ccccc1 [10b] | 8.7 ± 0.01 | 68 ± 5 | 128 | IC50 [3]: 5.9 ± 0.26 µM; IC50 [4]: 91 ± 8 nM; SI [4]: 65
CCN(CC)CCCCOc1ccc(C(=O)N2CCC(Cc3ccccc3)CC2)cc1OC [7f] | 8.6 ± 0.32 | 6400 ± 240 | 1.3 | 
COc1cc(CCC(=O)N2CCC(Cc3ccccc3)CC2)ccc1OCCCCN1CCC(c2ccccc2)CC1 [8h] | 4.7 ± 0.28 | 130 ± 80 | 36 | IC50 [3]: 6.9 ± 0.14 µM; IC50 [4]: 190 ± 190 nM; SI [4]: 36
COc1cc(CCC(=O)N2CCC(Cc3ccccc3)CC2)ccc1OCCCCN1CCC(CCCc2ccccc2)CC1 [8c] | 4.2 ± 0.26 | 63 ± 5 | 67 | IC50 [3]: 6.7 ± 0.16 µM; IC50 [4]: 82 ± 7 nM; SI [4]: 82
COc1cc(CCC(=O)N2CCC(Cc3ccccc3)CC2)ccc1OCCCCN1CCC(Cc2ccccc2)CC1 [8a] | 1.7 ± 0.01 | 93 ± 5 | 18 | IC50 [3]: 5.9 ± 0.26 µM; IC50 [4]: 160 ± 430 nM; SI [4]: 37
COc1cc(CCC(=O)N2CCC(Cc3ccccc3)CC2)ccc1OCCCCN1CCC(c2noc3ccccc23)CC1 [8k] | 5.5 ± 0.23 | 250 ± 20 | 22 | 
CCN(C)C(=O)Oc1cccc([C@H](C)N(C)C)c1 [Rivastigmine] |  |  |  | recovery of BuChE activity / reversibility [5]: remained relatively unchanged
COc1cc(C(=O)N2CCC(Cc3ccccc3)CC2)ccc1OCCCCN1CCC(CCCc2ccccc2)CC1 [7c] | 3.4 ± 0.13 | 1100 ± 60 | 3.1 | 
CCN(CCCCCCCCCOc1ccc(CCC(=O)N2CCC(Cc3ccccc3)CC2)cc1OC)Cc1ccccc1 [10e] | 8.4 ± 0.53 | 280 ± 20 | 30 | 
CCN(CC)CCCCOc1ccc(CCC(=O)N2CCC(Cc3ccccc3)CC2)cc1OC [8f] | 8.4 ± 0.53 | 280 ± 20 | 30 | 
COc1cc2c(cc1OC)C(=O)C(CC1CCN(Cc3ccccc3)CC1)C2 (stereo not shown) [Donepezil] |  |  |  | latency time ([6]; 5.0 mg/kg): 163.87 s; number of errors ([6]; 5.0 mg/kg): 0.1; neuronal apoptosis in the hippocampus ([6]; TUNEL staining, donepezil 5.0 mg/kg, 8e 6.5 mg/kg): significantly reduced; levels of IL-1β, IL-6, and TNF-α in the cerebral cortex ([6]; immunohistochemistry, donepezil 5.0 mg/kg, 8e 6.5 mg/kg): significant reduction; number of apoptotic cells ([7]; HE staining, 8e 0.1, 0.25, and 0.5 μg/mL): significantly reduced; swimming distance/swimming speed ([7]; 8e 0.1 and 0.25 μg/mL): significantly increased; reaction capacity ([7]; 8e 0.1 and 0.25 μg/mL, transition from dark to light): significantly enhanced; ACh levels ([8]; ELISA, cerebral cortex): remarkable increase; Aβ1–42 levels ([8]; ELISA, cerebral cortex): significantly reduced; IL-1β levels ([8]; ELISA, cerebral cortex): significantly reduced; IL-6 levels ([8]; ELISA, cerebral cortex): significantly reduced; TNF-α levels ([8]; ELISA, cerebral cortex): significantly reduced; neuronal abnormalities within cerebral cortex and hippocampus ([8]; HE staining, donepezil 2 mg/kg, 8e 2.6 mg/kg): marked decrease; escape latency ([8]; MWM, vs model group): significantly decreased; Aβ1–42 levels ([8]; immunofluorescence staining, cerebral cortex, donepezil 2.0 mg/kg, 8e 2.6 mg/kg): significant reduction; TG levels ([8]; plasma): significant decrease; LDL-c levels [8, 9]: significantly reduced; TC levels [8, 9]: significantly reduced
CCN(CCCCCCOc1ccc(CCC(=O)N2CCC(Cc3ccccc3)CC2)cc1OC)Cc1ccccc1 [10d] | 4.6 ± 0.03 | 120 ± 3 | 38 | 
COc1cc(CCC(=O)N2CCC(Cc3ccccc3)CC2)ccc1OCCCCN1CCc2ccccc2C1 [8d] | 6.2 ± 0.12 | 87 ± 2 | 71 | IC50 [3]: 8.6 ± 0.33 µM; IC50 [4]: 97 nM; SI [4]: 89
CCN(CCOc1ccc(CCC(=O)N2CCC(Cc3ccccc3)CC2)cc1OC)Cc1ccccc1 [10a] | 3.6 ± 0.02 | 220 ± 30 | 16 | 
CCN(CCCCOc1ccc(C(=O)N2CCC(Cc3ccccc3)CC2)cc1OC)Cc1ccccc1 [7e] | 2.8 ± 0.13 | 470 ± 50 | 6.0 | IC50 [3]: 3.9 ± 0.44 µM; IC50 [4]: 870 ± 230 nM; SI [4]: 4.5
COc1cc(CCC(=O)N2CCC(Cc3ccccc3)CC2)ccc1OC(=O)CCCCN1CCC(CCCc2ccccc2)CC1 [9c] | 8.1 ± 0.43 | 730 ± 230 | 11 | 
COc1cc(C(=O)N2CCC(Cc3ccccc3)CC2)ccc1OCCCCN1CC(C)CC(C)C1 (stereo not shown) [7g] | 2.3 ± 0.12 | 3700 ± 240 | 0.6 | 
